Reference: ChEMBL document CHEMBL5661943, “ASAP - In vitro antiviral effect” (2024)
Several values for one entry are separate records, joined by “and”; a condition that tells them apart may be missing. Equal entries are not always repeated.

Tests used:
[1] = test system: dengue virus type 2; assay: (§1) Functional immunofluorescence assay to measure dose dependent changes in antiviral-drug inhibitory efficacy against Dengue virus type 2 Thailand/16681/84 in Vero E6/TMPRSS2 cells. Cells are treated with antiviral candidates that are serially diluted, following infection, cells are fixed. EC50 is reported via analysis of immunofluorescence staining. The assay has been performed by Icahn School of Medicine at Mount Sinai.; assay type: organism-based, Chlorocebus sabaeus
[2] = test system: Zika virus; assay: as §1, with “Zika” for “Dengue”, “PRVABC59” for “type 2 Thailand/16681/84”; assay type: organism-based, Chlorocebus sabaeus
[3] = test system: Zika virus; assay: (§2) Functional CPE-based assay to measure dose dependent changes in antiviral-drug inhibitory efficacy against Zika virus MR766 in Vero E6 miRFP670 cells. Cells are treated with antiviral candidates that are serially diluted. EC50 is reported via analysis of MTS assay as a readout of CPE. The assay has been performed by KU Leuven.; assay type: organism-based, Chlorocebus sabaeus, Vero C1008; details: Maximum response 100 %
[4] = test system: dengue virus type 2; assay: as §1, with “cells (cotreated with P-gp inhibitor, Elacridar).” for “cells.”; assay type: organism-based, Chlorocebus sabaeus, VeroE6/TMPRSS2
[5] = test system: dengue virus type 2; assay: Functional assay to measure dose dependent changes in antiviral-drug inhibitory efficacy against Dengue virus type 2 New Guinea C in Vero E6 miRFP670 cells (cotreated with P-gp inhibitor, CP100356). Cells are treated with antiviral candidates that are serially diluted, following infection, cells are fixed. EC50 is reported via analysis of fluorescence intensity using high-content imager. The …; assay type: organism-based, Chlorocebus sabaeus, Vero C1008; details: Baseline response 0 %, P-gp concentration 500 nM, P-gp inhibitor CP100356
[6] = test system: Zika virus; assay: as §2, with “cells (cotreated with P-gp inhibitor, CP100356).” for “cells.”; assay type: organism-based, Chlorocebus sabaeus, Vero C1008; details: Baseline response 0 %, Maximum response 100 %, P-gp inhibitor CP100356
[7] = test system: Zika virus; assay: EC50 is reported via analysis of immunofluorescence staining. The assay has been performed by Icahn School of Medicine at Mount Sinai.; assay type: functional, organism-based, Chlorocebus sabaeus, VeroE6/TMPRSS2; details: Baseline response 0 %, P-gp concentration 2 uM, P-gp inhibitor Elacidar

Compound: C[C@@]1(O)[C@H](O)[C@@H](CO)O[C@H]1n1ccc2c(N)ncnc21 [BETA-2'-C-METHYL-7-DEAZA-ADENOSINE]
- EC50 ([1]; VeroE6/TMPRSS2): 0.045 µM
- EC90 ([1]; VeroE6/TMPRSS2, Baseline response 43.084 %, EC90 CI (lower) 0 uM, EC90 CI (upper) 0 uM, Hill slope -11.259, Maximum measured 119.711 %, Maximum response 115.226 %, Minimum measured 27.831 %, R squared 0.402): 0.055 µM
- EC50 ([2]; VeroE6/TMPRSS2): > 10 µM
- EC90 ([2]; VeroE6/TMPRSS2, Baseline response 0 %, Hill slope -0.033, Maximum measured 93.578 %, Maximum response 100 %, Minimum measured 41.57 %, R squared 0.011): > 10 µM
- EC90 ([3]; Baseline response 0 %, EC90 CI (lower) 15.507 uM, EC90 CI (upper) 28.219 uM, Hill slope 1.884, Maximum measured 104.267 %, Minimum measured 0.699 %, R squared 0.993): 20.9 µM
- EC90 ([3]; Zika virus, Vero C1008, Baseline response 0 %, Hill slope 0.758, Maximum measured 14.246 %, Minimum measured -0.672 %, R squared 0.091): > 50 µM
- EC90 ([3]; Zika virus, Vero C1008, Baseline response 0 %, Hill slope 2.277, Maximum measured 74.443 %, Minimum measured -3.247 %, R squared 0.993): > 50 µM
- EC90 ([3]; Zika virus, Vero C1008, Baseline response 0 %, EC90 CI (lower) 6.665 uM, EC90 CI (upper) 20.693 uM, Hill slope 1.418, Maximum measured 92.41 %, Minimum measured 5.185 %, R squared 0.921): 11.7 µM
- EC90 ([4]; Baseline response 0 %, Hill slope -0.711, Maximum measured 113.708 %, Maximum response 100 %, Minimum measured 27.128 %, P-gp concentration 2 uM, R squared 0.834, P-gp inhibitor Elacidar): > 10 µM
- EC90 ([4]; Dengue virus, VeroE6/TMPRSS2): > 10 µM
- EC50 ([4]; veroe6/tmprss2): 8.6 µM and 2.59 µM
- EC90 ([5]; EC90 CI (lower) 3.48 uM, EC90 CI (upper) 7.993 uM, Hill slope -1.843, Maximum measured 93.524 %, Maximum response 100 %, Minimum measured 0.518 %, R squared 0.959): 57.2 µM
- EC90 ([5]; EC90 CI (lower) 4.11 uM, EC90 CI (upper) 8.283 uM, Hill slope -1.641, Maximum measured 89.89 %, Maximum response 100 %, Minimum measured 0.257 %, R squared 0.971): 84.9 µM
- EC90 ([5]; EC90 CI (lower) 6.077 uM, EC90 CI (upper) 11.974 uM, Hill slope -2.703, Maximum measured 104.698 %, Maximum response 100 %, Minimum measured 1.385 %, R squared 0.989): 43.4 µM
- EC90 ([5]; EC90 CI (lower) 9.48 uM, EC90 CI (upper) 152.006 uM, Hill slope -3.766, Maximum measured 162.932 %, Maximum response 100 %, Minimum measured 1.715 %, R squared 0.543): 122 µM
- EC90 ([5]; EC90 CI (lower) 10.134 uM, EC90 CI (upper) 21.901 uM, Hill slope -2.086, Maximum measured 107.044 %, Maximum response 100 %, Minimum measured 0.795 %, R squared 0.961): 122 µM
- EC90 ([5]; EC90 CI (lower) 13.312 uM, EC90 CI (upper) 68.915 uM, Hill slope -3.556, Maximum measured 71.93 %, Maximum response 65.616 %, Minimum measured 1.236 %, R squared 0.774): 104 µM
- EC90 ([5]; EC90 CI (lower) 21.742 uM, EC90 CI (upper) 34.481 uM, Hill slope -3.397, Maximum measured 108.212 %, Maximum response 100 %, Minimum measured 0.235 %, R squared 0.983): 99.8 µM
- EC90 ([6]; EC90 CI (lower) 1.33 uM, EC90 CI (upper) 21.491 uM, Hill slope 2.016, Maximum measured 119.759 %, Minimum measured 49.499 %, P-gp concentration 500 nM, R squared 0.708): 5.34 µM
- EC90 ([6]; EC90 CI (lower) 2.362 uM, EC90 CI (upper) 73.078 uM, Hill slope 2.992, Maximum measured 157.756 %, Minimum measured 1.417 %, P-gp concentration 500 nM, R squared 0.838): 13.1 µM
- EC90 ([6]; EC90 CI (lower) 3.073 uM, EC90 CI (upper) 52.816 uM, Hill slope 2.304, Maximum measured 128.398 %, Minimum measured 15.752 %, P-gp concentration 500 nM, R squared 0.861): 12.7 µM
- EC90 ([6]; EC90 CI (lower) 6.142 uM, EC90 CI (upper) 39.815 uM, Hill slope 2.116, Maximum measured 119.257 %, Minimum measured 3.222 %, P-gp concentration 500 nM, R squared 0.943): 15.6 µM
- EC90 ([6]; EC90 CI (lower) 6.409 uM, EC90 CI (upper) 24.739 uM, Hill slope 3.129, Maximum measured 131.405 %, Minimum measured -2.605 %, P-gp concentration 500 nM, R squared 0.913): 12.6 µM
- EC90 ([6]; EC90 CI (lower) 8.9 uM, EC90 CI (upper) 38.162 uM, Hill slope 2.016, Maximum measured 114.801 %, Minimum measured 5.397 %, P-gp concentration 500 nM, R squared 0.961): 18.4 µM
- EC90 ([6]; EC90 CI (lower) 10.323 uM, EC90 CI (upper) 42.716 uM, Hill slope 1.659, Maximum measured 113.143 %, Minimum measured 4.385 %, P-gp concentration 100 nM, R squared 0.967): 21 µM
- EC90 ([6]; EC90 CI (lower) 14.003 uM, EC90 CI (upper) 30.102 uM, Hill slope 3.316, Maximum measured 112.736 %, Minimum measured -6.737 %, P-gp concentration 500 nM, R squared 0.984): 20.5 µM
- EC90 ([6]; EC90 CI (lower) 17.062 uM, EC90 CI (upper) 43.343 uM, Hill slope 2.491, Maximum measured 123.53 %, Minimum measured -2.699 %, P-gp concentration 500 nM, R squared 0.955): 27.2 µM
- EC90 ([6]; EC90 CI (lower) 18.425 uM, EC90 CI (upper) 28.103 uM, Hill slope 2.492, Maximum measured 115.262 %, Minimum measured 4.379 %, P-gp concentration 500 nM, R squared 0.954): 22.8 µM
- EC90 ([6]; EC90 CI (lower) 23.748 uM, EC90 CI (upper) 39.727 uM, Hill slope 2.255, Maximum measured 100.144 %, Minimum measured -8.11 %, P-gp concentration 500 nM, R squared 0.982): 30.7 µM
- EC90 ([6]; EC90 CI (lower) 28.979 uM, EC90 CI (upper) 80.3 uM, Hill slope 3.379, Maximum measured 85.565 %, Minimum measured -8.762 %, P-gp concentration 500 nM, R squared 0.96): 48.2 µM
- EC90 ([6]; Hill slope 1.338, Maximum measured 86.023 %, Minimum measured -1.473 %, P-gp concentration 500 nM, R squared 0.993): > 50 µM
- EC90 ([7]; EC90 CI (lower) 0.301 uM, EC90 CI (upper) 7.202 uM, Hill slope -3.742, Maximum measured 131.957 %, Maximum response 100 %, Minimum measured 2.652 %, R squared 0.767): 4.77 µM
- EC90 ([7]; Hill slope -0.425, Maximum measured 98.697 %, Maximum response 100 %, Minimum measured 17.927 %, R squared 0.629): > 10 µM
- EC90 ([7]; Hill slope -1.446, Maximum measured 54.457 %, Maximum response 40 %, Minimum measured 5.333 %, R squared 0.69): > 10 µM
- EC90 ([7]; Hill slope -2.191, Maximum measured 87.134 %, Maximum response 60 %, Minimum measured 12.691 %, R squared 0.704): > 10 µM
